Measurements published in patent EP3797781A1, “USE OF EC-7072 AND SYNERGIC COMPOSITIONS THEREOF IN TREATMENT OF CHRONIC LYMPHOCYTIC LEUKEMIA” (priority 2019, dated 2021).

Tested on: NK cells (CD3^-CD56^+)
Experiment: NK cell numbers, viability and apoptosis in PBMCs (flow cytometry, DiOC6(3)/PI staining)
Type: cell-based, human
Description: To evaluate absolute cell numbers, an equal volume of PKH26 reference microbeads (Sigma-Aldrich) was added to each sample after staining for immune subset identification. Microbeads (5x10^3) were acquired by flow cytometry and absolute numbers of each immune population within the sample were calculated. Normalized percentage values were calculated considering the control (DMSO)-treated cells as 100%.
Cell viability and apoptosis were evaluated by double-staining with the mitochondrial inner transmembrane potential (ΔΨm)-sensitive dye DiOC6(3) (3,3'-dihexyloxacarbocyanine iodide; Sigma-Aldrich) and the exclusion dye propidium iodide (PI; Immunostep), allowing identification of apoptotic [DiOC6(3)^low PI^-] and dead [PI^+] cells as per Proc. Natl. Acad. Sci. U.S.A. (2014) 111(8):3020-3025 and Methods Mol. Biol. (2016) 1419:1-16. Briefly, PBMCs were resuspended in culture medium containing 20 nM DiOC6(3) and incubated for 30 minutes at 37 °C. Then, PI (1 µg/mL) was added and cells were further incubated for 10 minutes at room temperature (RT). Cells were analyzed by flow cytometry considering DiOC6(3)^+PI^- cells as viable. In some experiments, apoptosis was evaluated by staining with Annexin V/PI. Thus, PBMCs were incubated in Annexin V binding buffer containing 5 µg/mL Annexin V-FITC (Biolegend) for 15 minutes at RT and PI (1 µg/mL) was subsequently added. Data were normalized to the untreated control as a percentage. Only samples with at least 60% of viable cells (DiOC6(3)^+; Annexin V^-) in the control (DMSO) condition were employed in this study.
The effect of EC-7072 toward healthy immune subsets, T lymphocytes and natural killer (NK) cells, which are chronically exposed to leukemia cells in the peripheral blood of patients with CLL was assessed by: • (i) incubating PBMCs isolated from patients with CLL (n = 10) following treatment with increasing concentrations of EC-7072 (0 - 400 nM) for 24 hours. Numbers of T cells (CD3^+CD56^-) (Figure 2A) and NK cells (CD3^-CD56^+) (Figure 2B) were evaluated by flow cytometry and normalized to their respective control (DMSO) condition for each individual patient to obtain percentage of relative number of T cells and NK cells, respectively; • (ii) incubating PBMCs isolated from patients with CLL (n = 6 - 10) following treatment with increasing concentrations of EC-7072 (0 - 400 nM) for 24 hours. Viability of immune subsets (leukemia cells, T cells and NK cells) was determined by cytofluorometric assessment of DiOC6(3)/PI staining and normalized to their respective control (DMSO) condition for each individual patient to obtain percentage of viable [DiOC6(3)^+] cells (Figures 2C and 2D); • (iii) incubating PBMCs isolated from patients with CLL (n = 11) following treatment with DMSO or EC-7072 (200 nM) for 24 hours. Numbers of CD4^+ cells (Figure 2E) and CD8^+ T cells (Figure 2F) were evaluated by flow cytometry and normalized to their respective control (DMSO) condition for each individual experiment; • (iv) incubating PBMCs isolated from healthy donors (n = 15) following treatment with EC-7072 (200 nM) for 24 hours. […]

CO[C@@H]([C@@H]1Cc2cc3cc(O[C@H]4C[C@@H](O[C@H]5C[C@@H](O)[C@H](O)[C@@H](C)O5)[C@H](O)[C@@H](C)O4)c(C)c(O)c3c(O)c2C(=O)[C@H]1O[C@H]1C[C@@H](O[C@H]2C[C@@H](O[C@H]3C[C@](C)(O)[C@H](O)[C@@H](C)O3)[C@@H](O)[C@@H](C)O2)[C@H](O)[C@@H](C)O1)[C@@H](O)C(C)=O [EC-7072, mithramycin SK]
ratio of apoptosis in NK cells relative to NK cell death (200 nM, 24 hours, PBMCs from healthy donors (n = 4), Figure 2R): far lower ratio of apoptosis in NK cells relative to NK cell death than does EC-7073 | viability of NK cells, comparison of mithralogs (200 nM, 24 hours, PBMCs from healthy donors (n = 10), Figure 2O): not exhibit toxicity | cell numbers and viability of NK cells (200 nM, 24 hours, PBMCs from healthy donors (n = 15), compared with PBMCs from patients with CLL): comparable effects | NK cell survival (200 nM, 24 hours, PBMCs from patients with CLL): only slightly altered | toxicity against NK cells compared with fludarabine (EC-7072 200 nM 24 hours vs fludarabine 10 µM 24 hours, PBMCs from patients with CLL (n = 6 - 8), Figure 4F): significantly less toxic than fludarabine | toxicity against NK cells compared with leukemia cells (high doses (400 nM), 24 hours, PBMCs from patients with CLL): significantly less toxic against NK cells than leukemia cells
